Peptide text beside a SMILES is read from it. * marks the point of attachment. Palmitoyl = CCCCCCCCCCCCCCCC(=O)*; X1 = NCCNCC(CNCCN)C(=O)*

In one data set the test system is AsPC-1 cells. Nature of the data set: NTS1R-specific uptake and internalization in AsPC-1 cells. The data set is classed as cell-based, human. The method, then: The NTS1R-specific internalization of [^99mTc]Tc-DT1/7/8/9 radioligands was compared in AsPC-1 cells. The cells were seeded in 6-well plates (1 × 10^6 cells per well) and left to grow overnight. The following day, the medium was aspirated, and the cells were washed twice with internalization medium (2 mL IM: RPMI supplemented with 1% v/v FBS) on ice. They were placed on the bench, and warm IM (1200 μL 37 °C) was added per well, followed by radioligand solution (150 μL, 250 fmol) and either IM (150 μL total: T; upper wells) or NT (10^−5 M in IM, non-specific: NS; lower wells). The plates were placed in the Incubator-Orbital Shaker at 37 °C for 1 h, and the incubation was interrupted by placing the plates on ice. The supernatant was collected in RIA tubes, and the cells were washed with 1 mL phosphate-buffered saline (PBS, pH 7.4, 4 °C) containing 0.5% w/v BSA, and the washing was also collected in the same RIA tube. Cells were treated twice for 5 min with glycine buffer (600 μL, 50 mM glycine, 0.1 M NaCl, pH 2.8), and supernatants were collected (membrane bound fraction, MB). The cells were washed again with 1 mL ice-cold PBS-BSA buffer, which was discarded. Finally, cells were lysed (2 × 600 μL 1 M NaOH), and the lysates were collected (internalized fraction, IF). Sample radioactivity was measured on the γ-counter. Specific values for MB and IF were acquired by subtracting NS values from T ones. Results are expressed as mean percentage of added radioactivity ± sd, n = 3. In addition, time-dependent internalization in AsPC-1 cells was directly compared for [^99mTc]Tc-DT1/9 by incubation at 37 °C for 15 min, 30 min, 1 h, and 2 h, following the above-described protocol for each time point.

Data set [1] is described as follows: Radioligand metabolic stability in peripheral mouse blood (radio-HPLC). It counts as in vivo, mice. As to conditions: peripheral mouse blood 5 min pi. The protocol:
For the assessment of in vivo stability of [^99mTc]Tc-DT7/8/9, healthy Swiss Albino mice (33 animals, >8 weeks of age, body weight: 30 ± 5 g) were obtained from NCSR “Demokritos” Animal House (Athens, Greece). Animals were injected through the tail vein with the radioligand (100 μL, 2 nmol in vehicle: PBS/EtOH 9/1 v/v, with the addition of 0.1% Tween-80 in the case of [^99mTc]Tc-DT9) plus vehicle (100 μL; controls) or plus Lis (100 μg in 100 μL vehicle; Lis). Additional mice groups received per os a suspension of Entresto® (200 μL, 12 mg, 30 min prior to the i.v. injection of the radioligand plus vehicle—Entresto® group; or the i.v. injection of the radioligand plus Lis—Entresto®+Lis group). Animals were euthanized 5 min post injection (pi), and blood samples were drawn from the heart via a prechilled insulin syringe and transferred rapidly into pre-cooled 1.5 mL LoBind Eppendorf tubes containing EDTA (20 μL, 0.1 mM EDTA), and the collected radioactivity was measured in a dose calibrator (CURIEMENTOR 4, PTW Freiburg-GmbH; Freiburg, Germany). The tubes were centrifuged for 10 min at 2000× g at 4 °C in a Hettich Universal 320 R centrifuge (Tuttlingen, Germany). The plasma was collected, diluted in a 1:1 v/v ratio with MeCN, and thoroughly mixed; sample tubes were again centrifuged for 10 min at 15000× g at 4 °C. The supernatant was collected and the volume reduced to 50–100 μL under a gentle flux of N2 and mild heating at 60 °C. […] Sample activity was measured in the dose calibrator, and aliquots were analyzed by radio-HPLC on a Symmetry Shield RP18 cartridge column (5 μm, 3.9 mm × 20 mm; Waters, Eschborn, Germany) eluted at a flow rate of 1 mL/min with the linear gradient (system 2): from 100% A/0% B to 60% A/40% B in 40 min (A: 0.1% aqueous TFA; B: MeCN). […] The tR of intact [^99mTc]Tc-DT7, [^99mTc]Tc-DT8, or [^99mTc]Tc-DT9 was determined by co-injection of blood samples processed as above with an aliquot of the labeling solution. […]

On to `CCCCCCCCCCCCCCCC(=O)NCCCC[C@H](NC(=O)C(CNCCN)CNCCN)C(=O)N[C@@H](CCCNC(=N)N)C(=O)N[C@@H](CCCNC(=N)N)C(=O)N1CCC[C@H]1C(=O)N[C@@H](Cc1ccc(O)cc1)C(=O)N[C@H](C(=O)N[C@@H](CC(C)C)C(=O)O)[C@@H](C)CC` [[^99mTc]Tc-DT9, metal not drawn] (X1-K(Palmitoyl)RRPYIL-OH), for which the “internalization, specific of added radioactivity” value with AsPC-1 cells (1 h at 37 °C) is given as 16.53 ± 1.12%. The “specific cell uptake of added radioactivity (internalized + membrane bound)” value in the data set with AsPC-1 cells (1 h at 37 °C) is given as 16.76 ± 1.16%. In addition, the “specific uptake of added radioactivity (time-dependent internalization)” value in the data set on AsPC-1 cells (2 h at 37 °C) was 21.5 ± 1.0%. For the same compound, the intact radioligand in data set [1] (Control) is 98.06 ± 1.18 (n = 3) %; in data set [1] (Entresto), 97.33 ± 1.7 (n = 3) %; in data set [1] (Entresto+Lis), 93.72 ± 3.7 (n = 3) %.
